pIC50: −log10 of the molar value.
Key:
IL-6 = experiment: LPS-induced cytokine production in mice (plasma IL-6); assay type: in vivo, mice (C57-B6)
Text: Mouse Model of Inflammation Supporting Arthritis Model: Study of effect of Treatments on LPS-Induced Cytokine Production Mice (C57-B6 mice, ˜7-8 wks, male, Charles River Labs, 22-28 g) were quarantined and examined daily during 72 hr quarantine period. Any sign of clinical distress, disease, or injury were noted on a daily basis. […] Accepted mice were transferred to routine maintenance and housed at 5 per cage. Each mouse was identified by an ear tag. The vehicle or pharmaceutically acceptable carrier for test compounds was 20% hydroxypropyl-beta-cyclodextrin for subcutaneous and interperoneal routes (Groups 6-9). For Groups 1-5, the “Vehicle” as used in this study is 0.1% Tween 80 and 1% carboxymethylcellulose (CMC). The 0.1% Tween 80 and 1% carboxymethylcellulose (CMC) was the Vehicle used in the mice in Groups 1 and 2. The compounds were administered with pre-formulated material at a dose of 0.2 mL for 25 g mouse (8.0 mL per kg body weight). […] At the initiation of the study (T=0) animals were weighed and administered with test material or Vehicle. Five 5 mice per treatment per time point group were completed. At the first time point (T=24 hours) the animals were administered with test material or Vehicle again as above. [0.2 mL for 25 g mouse (8.0 mL per kg body weight)] [table] At the time point T=25 hour, animals were administered 2 mL/kg of an LPS solution (5 mg/mL, lipopolysaccharide from Escherichia coli 0111:B4; dissolved in sterile PBS) or vehicle by intraperitoneal route. At this time point, Group 1 mice received Vehicle only as the non-LPS control and Groups 2 through 9 mice received LPS and Vehicle (Group 2) or Test Materials. At the time point T=30 hour, mice in Groups 1 through 9 were anesthetized and exsanguinated into EDTA-treated microtainer tubes. […] The plasma samples was stored at −20° C. until testing. Plasma IL-6 was measured by Luminex cytokine multiplex measurements using beads supplied by Linco.

[1] = Pharmacokinetic study in mice; assay type: in vivo; conditions: mouse plasma; for MRT: read-out: mean resident time (MRT)
Description: All animals were weighed prior to dose administration. […].
Blood (˜0.5 mL) was collected by cardiac puncture at sacrifice and transferred into vacutainer tubes containing sodium heparin at the time points outlined (See FIG. 3). After collection, the blood samples were centrifuged at approximately 1000×g at 2-8° C. for approximately 15 minutes. Each plasma specimen was collected, aliquoted into 2 microcentrifuge tubes, and stored at about −20° C. until analysis by LC/MS (liquid chromatography/mass spectrometry).
The quantitation method for pharmacokinetics is summarized as follows:
To prepare calibration standards for quantitation, the working standard was diluted 1 in 100 into rat plasma to 5 μg/mL (5 μL+495 μL), then diluted further with the same medium by 3-fold serial dilution. A total of seven dilutions were performed yielding eight calibration standards ranging from 2.29 to 5000 ng/mL. Calibration standards 3, 5 and 7 were used as the low, mid and high QC samples, respectively.
Calibration standards, QC samples and study samples were prepared for HPLC injection by precipitating plasma (25 μL) with 3× volumes (75 μL) of ice cold Internal Standard Solution. Following centrifugation at 6100 g for 30 minutes, 40 μL of each supernatant was transferred to a deep-well microplate and diluted with 200 μL of 0.2% formic acid in water.

DBA/1 mice = experiment: Collagen induced rheumatoid arthritis (RA) mouse model; assay type: in vivo, mice (DBA/1)
Description: Mice were immunized with collagen as follows. Collagen (Bovine Type II, 0.05M in acetic acid) was emulsified with CFA (Complete Freund's Adjuvant) by mixing one volume of CFA with an equal amount of the collagen solution. Mixing was continued until a stable, stiff emulsion resulted. To ascertain the desired stability of the emulsion, 1 drop of emulsion was added into a water-filled beaker. The emulsion was considered stable if it remained in the water as a solid. For the collagen IP boost on day 21, the Bovine Type II collagen (Condrex, Seattle, Wash.) was thawed at 4° C. overnight and then mixed 1:1 with the PBS supplied. 200 μL was injected IP into each mouse. Four groups of 10 mice (40 total), aged 7-8 weeks were acclimated a minimum of 5 days prior to start of the study. Animals were housed 5 per cage in microisolators in a 12:12 light dark cycle (all work was done in a BioBubble Hood™). Standard maintenance mouse chow diet (Harlan Teklad 8640) was supplied. Water and food were given ad libitum. High CIA-susceptible DBA/1 mice were utilized which generally develop arthritis 3-5 weeks after immunization with Bovine type TI collagen. Fully developed arthritis, including red and swollen paws, was to be observed 3-5 days after the onset. […] Time of dosing was approximately the same each day following through the end of the study. The mice groups were fed as follows through the duration of the experiment: Group 1) Chow (Referred to as “Vehicle” in FIG. 1). Group 2) Chow (Positive Control-Dexamethasone (DEXA))-Dosed as appropriate. […] The dosing solutions were made on a twice weekly basis and stored at 4° C. between dosing. Measurements were taken twice weekly from boost and included: body weight measurement and Arthritic Score on a scale of 0 to 4. Arthritic score 0-4 (0=normal; 1=1-2 digit swollen and mildly red; 2=redness and swelling in mid-foot or ankle; 3=>3 paws and ankle joints swollen and very red); 4=all joints swollen and animal is not using the paw. At onset of arthritis paw measurements were taken with calipers. A baseline of caliper measurements was taken when all visual assessments were zero. Measurements were taken with an electronic caliper that entered measurements directly to an excel spreadsheet. The study was terminated on Day 42 from initial collagen injection. Cardiac blood was taken from each mouse and plasma prepared in EDTA within 15 min of collection. Plasma was frozen at −20° C. for future analysis of cytokines and eicosatrienoic acids. All left hind paws were removed and stored in formalin for future histology.

sEH = target: T1, sEH (Homo sapiens, UniProt P34913); experiment: sEH inhibition, fluorescent CMNPC substrate assay (IC50 determination); assay type: biochemical; conditions: for inhibition at 0.05 µM: tested at 50 nM
T1 sequence (P34913 1-555): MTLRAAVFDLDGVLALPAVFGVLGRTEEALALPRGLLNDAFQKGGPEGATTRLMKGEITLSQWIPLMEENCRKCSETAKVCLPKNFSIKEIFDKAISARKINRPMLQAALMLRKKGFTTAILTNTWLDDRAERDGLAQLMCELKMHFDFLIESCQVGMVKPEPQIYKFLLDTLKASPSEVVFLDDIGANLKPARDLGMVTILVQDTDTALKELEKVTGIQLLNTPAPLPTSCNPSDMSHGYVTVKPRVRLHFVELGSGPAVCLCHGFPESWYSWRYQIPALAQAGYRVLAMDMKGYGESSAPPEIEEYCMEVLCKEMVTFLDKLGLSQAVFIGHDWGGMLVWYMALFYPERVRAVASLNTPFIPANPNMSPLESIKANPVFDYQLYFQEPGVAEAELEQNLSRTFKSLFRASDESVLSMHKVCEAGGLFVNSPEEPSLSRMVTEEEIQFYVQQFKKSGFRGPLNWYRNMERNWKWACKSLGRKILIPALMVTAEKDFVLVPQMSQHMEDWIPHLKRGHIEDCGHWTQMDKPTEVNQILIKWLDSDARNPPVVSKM
Description: The IC50s for each inhibitor were determined according to the following procedure:
The substrate for the reaction was:
Therefore, well A2 would refer to a well in the first row and second column of the plate.
In a black 96 well plate, all the wells are filled with 150 μL of buffer A (Buffer A: Bis/Tris HCl, 25 mM, pH 7.0 plus 0.1 mg/mL BSA). DMSO (2 microliters) was added in well A2 and A3, and then was added 2 μL of inhibitor solution in A1 and A4 through A12. […] The plate was incubated for 5 minutes in the plate reader at 30° C. During incubation, the working solution of substrate was prepared by mixing 3.68 mL of buffer A with 266 μL of 0.5 mM substrate solution. At t=0, 30 μL of working substrate solution was added and readings were started ([S]final: 5 μM). […] The velocities were used to analyze and calculate the IC50s.

[2] = 50 mg/kg PO once a day (QD), Day 20 to Day 27
[3] = 50 mg/kg PO twice a day (BID), Day 28 to Day 42

Compound	inhibition of IL-6 release in response to LPS (IL-6; PO, 100 mg/kg, relative to the vehicle control) [%]	Cmax [1] [µg/mL]	area under the curve (AUC), fold higher than COMPOUND #2 [1]	MRT [1] [h]	arthritis score vs Vehicle (DBA/1 mice; [2])	arthritis score vs Vehicle (DBA/1 mice; [3])	pIC50 (sEH; read-out: IC50 against sEH)	inhibition at 0.05 µM (sEH) [%]	inhibition of IL-6 release in response to LPS (IL-6; administered SC, 50 mg/kg) [%]	inhibition of IL-6 release in response to LPS (IL-6; given orally, 50 mg/kg) [%]
Fc1ccc(-c2nc3n(c2-c2ccncc2)CCS3)cc1 [SKF86002, reference compound]	66									
O=C(Nc1ccc(C(F)(F)F)cc1)Nc1cccc(C(=O)N2CCOCC2)c1 [Compound 1, 1-[3-(morpholine-4-carbonyl)-phenyl]-3-(4-trifluoromethyl-phenyl)-urea]		9.92	over 20 fold	5.6	no significant difference from Vehicle	significantly decreased the arthritic score	8.05	82	94	55
CS(=O)(=O)N1CCC(NC(=O)NC23CC4CC(CC(C4)C2)C3)CC1 [Compound 5, 1-[1-(methylsulfonyl)piperidin-4-yl]-3-(adamant-1-yl) urea]								94		
CC(=O)N1CCC(NC(=O)NC23CC4CC(CC(C4)C2)C3)CC1 [Compound 2, 1-(1-acetylpiperidn-4-yl)-3-(adamant-1-yl) urea]		6.49		1.3	not significantly different from Vehicle treated animals	not significantly different from Vehicle treated animals			51	51

Reference: patent US20080221104A1, “SOLUBLE EPOXIDE HYDROLASE INHIBITORS FOR THE TREATMENT OF RHEUMATOID ARTHRITIS” (Arete Therapeutics, Inc., priority 2006, published 2008)
